Test results as given in paper PMC10812665, “Definition of the Neurotoxicity-Associated Metabolic Signature Triggered by Berberine and Other Respiratory Chain Inhibitors” (Antioxidants, 2023).

Molecular target: T1, purified pig brain tubulin (Sus scrofa, UniProt P02550+P02554)
T1 construct: native alpha/beta-tubulin purified from pig brain
Test: tubulin polymerization, absorbance […] nm
Assay type: biochemical

T1 sequence (P02554 whole entry): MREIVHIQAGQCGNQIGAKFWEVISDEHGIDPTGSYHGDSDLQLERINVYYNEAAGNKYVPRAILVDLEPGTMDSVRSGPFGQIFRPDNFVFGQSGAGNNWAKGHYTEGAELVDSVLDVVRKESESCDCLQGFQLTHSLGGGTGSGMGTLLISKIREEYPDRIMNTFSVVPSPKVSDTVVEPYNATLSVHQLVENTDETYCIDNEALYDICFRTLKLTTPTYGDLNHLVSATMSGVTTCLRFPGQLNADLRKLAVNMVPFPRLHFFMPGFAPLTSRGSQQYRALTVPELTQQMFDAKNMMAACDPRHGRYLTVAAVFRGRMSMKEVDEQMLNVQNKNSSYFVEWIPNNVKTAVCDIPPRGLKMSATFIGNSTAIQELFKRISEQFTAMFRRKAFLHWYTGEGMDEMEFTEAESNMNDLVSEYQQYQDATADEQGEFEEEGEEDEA
T1 sequence (P02550 whole entry): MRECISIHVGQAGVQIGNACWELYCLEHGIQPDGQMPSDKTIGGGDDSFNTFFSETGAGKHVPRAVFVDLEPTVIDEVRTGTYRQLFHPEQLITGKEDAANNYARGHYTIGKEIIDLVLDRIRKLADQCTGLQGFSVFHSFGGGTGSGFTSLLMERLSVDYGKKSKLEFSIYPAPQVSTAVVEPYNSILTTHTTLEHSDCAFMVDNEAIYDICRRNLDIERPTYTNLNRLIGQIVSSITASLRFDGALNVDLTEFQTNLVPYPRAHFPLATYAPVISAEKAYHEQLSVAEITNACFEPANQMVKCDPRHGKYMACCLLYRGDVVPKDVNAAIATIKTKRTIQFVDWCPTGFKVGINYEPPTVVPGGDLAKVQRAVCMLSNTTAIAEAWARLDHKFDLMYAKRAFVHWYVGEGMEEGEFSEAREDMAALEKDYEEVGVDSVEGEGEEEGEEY

Question: With `C=C(C)[C@H]1Cc2c(ccc3c2O[C@@H]2COc4cc(OC)c(OC)cc4[C@@H]2C3=O)O1` [Rot, rotenone] as the molecule, how does the EC50 read?
Answer: 640 nM
